Where two headings read alike, the source gives them in different places.
Assays:
[1] = tested on: hepatitis B virus surface antigen (HBs); assay: Hepatitis-vaccine enhancing activity (adjuvant activity): anti-HBs IgG in mouse serum by ELISA; format: in vivo, female CDF1 mice
Description: A compound of the present invention was dissolved in lipidmicrosphere (1 mg/ml). On the other hand, a solution of hepatitis B virus surface antigen (HBs) in physiological saline was prepared (50 μg/ml). The above solutions in equal amounts were mixed to prepare a test solution. A control solution was prepared by the exclusion of the compound of the present invention from said test solution. A mixture of a suspension of aluminium hydroxide gel in physiological saline (1 mg/ml) and said hepatitis vaccine preparation in equal amounts was prepared as another control solution. The test solution (0.2 ml) was intraperitoneally administered to each mouse in one group consisting of seven female CDF1 mice.
Blood samples were collected from the fundus ocluli vein of each mouse every week after the administration and then centrifuged to obtain serums. Three weeks after the administration, 0.2 ml of the test liquid was intraperitoneally administered again to each mouse for secondary stimulation. Then blood collecting was conducted every week to obtain serums after the application of the secondary stimulation, in the same manner as that described above.
The amount of the IgG antibodies against the hepatitis B virus surface antigens (HBs) in the serums thus obtained was determined with an ELISA method.

[2] = tested on: L-1210 mouse leukemia cells; assay: Activation of macrophages (growth inhibition of tumor cells by intraperitoneal macrophages of treated mice, MTT assay); format: cell-based; conditions: macrophages taken 3 days after i.p. 0.2 ml of 500 μg/ml, macrophage:L-1210 20:1, 72 hours
Description: A compound of the present invention was dissolved in lipidmicrosphere to obtain a solution in a concentration of 500μg/ml, and 0.2 ml of such solution was intraperitoneally administered to each mouse in one group consisting of seven female CDF1 mice. Intraperitoneal macrophages obtained three days after the administration and L-1210 mouse leukemia cells were mixed in the ratio of cell numbers of 20:1, respectively. Two hundred μl of the mixture was placed in each well of one sheet of 96 well microtiter plate. After 72 hours, the increase of the cell number in each well was determined by a MTT assay method. The ratio of the cell number for the mixture of the L-1210 cells and the macrophage relative to the cell number for the L-1210 cells only(growth inhibitory ratio) was determined, and the results are shown in Table 3.

[3] = tested on: influenza HA vaccine (B/Nagasaki/1/87 strain); format: in vivo, female CDF1 mice
[4] = Experiment 1, 1 W after i.p. administration, 5000-fold dilution, compound in lipidmicrosphere + HBs
[5] = Experiment 1, 2 W, 5000-fold dilution
[6] = Experiment 1, 3 W, 5000-fold dilution
[7] = Experiment 1, 4 W (after secondary stimulation at 3 weeks), 5000-fold dilution
[8] = Experiment 1, 5 W (after secondary stimulation at 3 weeks), 5000-fold dilution
[9] = Experiment 1, 1 W after i.p. administration, 5000-fold dilution, compound in lipidmicrosphere + HA vaccine
[10] = Experiment 2, 1 W, 2000-fold dilution
[11] = Experiment 2, 2 W, 2000-fold dilution
[12] = Experiment 2, 3 W, 2000-fold dilution
[13] = Experiment 2, 4 W (after secondary stimulation at 3 weeks), 2000-fold dilution
[14] = Experiment 2, 5 W (after secondary stimulation at 3 weeks), 2000-fold dilution
[15] = Experiment 2, 1 W, 8000-fold dilution
[16] = Experiment 2, 2 W, 8000-fold dilution
[17] = Experiment 2, 3 W, 8000-fold dilution
[18] = Experiment 2, 4 W (after secondary stimulation at 3 weeks), 8000-fold dilution
[19] = Experiment 2, 5 W (after secondary stimulation at 3 weeks), 8000-fold dilution

Row | Compound | Anti-HBs IgG antibody level in serum (ELISA absorbance at 415 nm) [1, 4] [O.D 415 nm] | Anti-HBs IgG antibody level in serum (ELISA absorbance at 415 nm) [1, 5] [O.D 415 nm] | Anti-HBs IgG antibody level in serum (ELISA absorbance at 415 nm) [1, 6] [O.D 415 nm] | Anti-HBs IgG antibody level in serum (ELISA absorbance at 415 nm) [1, 7] [O.D 415 nm] | Anti-HBs IgG antibody level in serum (ELISA absorbance at 415 nm) [1, 8] [O.D 415 nm] | Growth inhibitory ratio of L-1210 mouse leukemia cells [2] [%] | Anti HA serum antigen value (average value ± S.D.) [3, 9] [O.D 415 nm] | Anti HA serum antigen value (average value ± S.D.) [3, 5] [O.D 415 nm] | Anti HA serum antigen value (average value ± S.D.) [3, 6] [O.D 415 nm] | Anti HA serum antigen value (average value ± S.D.) [3, 7] [O.D 415 nm] | Anti-HBs IgG antibody level in serum (ELISA absorbance at 415 nm) [1, 10] [O.D 415 nm] | Anti-HBs IgG antibody level in serum (ELISA absorbance at 415 nm) [1, 11] [O.D 415 nm] | Anti-HBs IgG antibody level in serum (ELISA absorbance at 415 nm) [1, 12] [O.D 415 nm] | Anti-HBs IgG antibody level in serum (ELISA absorbance at 415 nm) [1, 13] [O.D 415 nm] | Anti-HBs IgG antibody level in serum (ELISA absorbance at 415 nm) [1, 14] [O.D 415 nm] | Anti HA serum antigen value (average value ± S.D.) [3, 15] [O.D 415 nm] | Anti HA serum antigen value (average value ± S.D.) [3, 16] [O.D 415 nm] | Anti HA serum antigen value (average value ± S.D.) [3, 17] [O.D 415 nm] | Anti HA serum antigen value (average value ± S.D.) [3, 18] [O.D 415 nm] | Anti HA serum antigen value (average value ± S.D.) [3, 19] [O.D 415 nm] | further results
1 | CCCCCCCCCCCCCCC(CCCCCCCCCCCCCC)C(=O)O[C@H]1O[C@H](CO)[C@@H](O)[C@H](O[C@H](C)C(=O)N[C@@H](C)C(=O)N[C@H](CCC(=O)OC)C(N)=O)[C@H]1NC(C)=O [Example 1] | 0.001 ± 0.001 | 0.018 ± 0.000 | 0.074 ± 0.002 | 0.815 ± 0.011 | 0.843 ± 0.005 | 40.0 | 0.007 ± 0.003 | 0.174 ± 0.003 | 0.232 ± 0.003 | 1.243 ± 0.036 |  |  |  |  |  |  |  |  |  |  | Anti HA serum antigen value (average value ± S.D.) [3, 8]: 1.201 ± 0.002 O.D 415 nm
2 | CCCCCCCCCCCCCCC(CCCCCCCCCCCCCC)C(=O)S[C@@H]1O[C@H](CO)[C@@H](O)[C@H](O[C@H](C)C(=O)N[C@@H](C)C(=O)N[C@H](CCC(=O)OC)C(N)=O)[C@H]1NC(C)=O [Example 2] | 0 | 0.023 ± 0.000 | 0.076 ± 0.001 | 0.975 ± 0.008 | 0.930 ± 0.004 | 41.3 | 0.003 ± 0.001 | 0.172 ± 0.004 | 0.420 ± 0.005 | 0.447 ± 0.029 |  |  |  |  |  |  |  |  |  |  | Anti HA serum antigen value (average value ± S.D.) [3, 8]: 1.418 ± 0.035 O.D 415 nm
3 | CCCCCCCCCCCCCC(=O)O[C@H](CCCCCCCCCCC)CC(=O)O[C@H]1O[C@H](CO)[C@@H](O)[C@H](O[C@H](C)C(=O)N[C@@H](C)C(=O)N[C@H](CCC(=O)OC)C(N)=O)[C@H]1NC(C)=O [Example 3, N-[2-0-{2-Acetamido-2,3-dideoxy-1-0-((3R)-3-tetradecanoyloxytetradecanoyl)-α-D-glucopyranos-3-yl}-D-lactoyl]-L-alanyl-D-isoglutamine methylester] | 0 | 0.027 ± 0.001 | 0.064 ± 0.003 | 0.631 ± 0.006 | 0.692 ± 0.009 | 42.6 | 0.009 ± 0.000 | 0.182 ± 0.003 | 0.292 ± 0.004 | 0.122 ± 0.020 |  |  |  |  |  |  |  |  |  |  | Anti HA serum antigen value (average value ± S.D.) [3, 8]: 1.140 ± 0.013 O.D 415 nm
4 | CCCCCCCCCCCCCC(=O)O[C@H](CCCCCCCCCCC)CC(=O)O[C@H]1O[C@H](CO)[C@@H](O)[C@H](O[C@H](C)C(=O)N[C@@H](C)C(=O)N[C@H](CCC(=O)OC)C(N)=O)[C@H]1NC(C)=O [Example 25, N-[2-0-{2-Acetamido-2,3-dideoxy-1-0-((3R)-3-tetradecanoyloxytetradecanoyl}-α-D-glucopyranos-3-yl}-D-lactoyl]-L-alanyl-D-isoglutamine methylester] |  |  |  |  |  |  |  |  |  |  | 0.004 ± 0.002 | 0.021 ± 0.001 | 0.031 ± 0.004 | 0.402 ± 0.011 | 0.434 ± 0.021 | 0.009 ± 0.001 | 0.109 ± 0.002 | 0.149 ± 0.004 | 0.623 ± 0.019 | 0.719 ± 0.021 | 
5 | CCCCCCCCCCCCCCCCCC(=O)OC[C@H]1O[C@H](OC(=O)C[C@@H](CCCCCCCCCCC)OC(=O)CCCCCCCCCCCCC)[C@H](NC(C)=O)[C@@H](O[C@H](C)C(=O)N[C@@H](C)C(=O)N[C@H](CCC(=O)OC)C(N)=O)[C@@H]1O [Example 26, N-[2-0-{2-Acetamido-2,3-dideoxy-6-0-octadecanoyl-1-0-((3R)-3-tetradecanoyloxytetradecanoyl)-α-D-glucopyranos-3-yl}-D-lactoyl]-L-alanyl-D-isogluatmine methylester] |  |  |  |  |  |  |  |  |  |  | 0.001 ± 0.006 | 0.015 ± 0.006 | 0.032 ± 0.008 | 0.192 ± 0.002 | 0.163 ± 0.004 | 0.004 ± 0.003 | 0.038 ± 0.001 | 0.054 ± 0.001 | 0.208 ± 0.001 | 0.206 ± 0.002 | 
6 | CCCCCCCCCCCCCCCCCCCCCCCC(=O)O[C@H](CCCCCCCCCCC)CC(=O)S[C@@H]1O[C@H](CO)[C@@H](O)[C@H](O[C@H](C)C(=O)N[C@@H](C)C(=O)N[C@H](CCC(=O)OC)C(N)=O)[C@H]1NC(C)=O [Example 27, N-[2-0-{2-Acetamido-2,3-dideoxy-1-S-((3R)-3-tetracosanoyloxytetradecanoyl)-1-thio-β-D-glucopyranos-3-yl}-D-lactoyl]-L-alanyl-D-isoglutamine methylester] |  |  |  |  |  |  |  |  |  |  | 0.003 ± 0.003 | 0.031 ± 0.002 | 0.052 ± 0.000 | 0.580 ± 0.016 | 0.573 ± 0.013 | 0 | 0.110 ± 0.003 | 0.161 ± 0.003 | 0.751 ± 0.004 | 0.805 ± 0.008 | 
7 | CCCCCCCCCCCCCCCCCCCCCCCC(=O)O[C@H](CCCCCCCCCCC)CC(=O)S[C@@H]1O[C@H](COC(=O)CCCCCCCCCCCCCCCCC)[C@@H](O)[C@H](O[C@H](C)C(=O)N[C@@H](C)C(=O)N[C@H](CCC(=O)OC)C(N)=O)[C@H]1NC(C)=O [Example 28, N-[2-0-{2-Acetamido-2,3-dideoxy-6-0-octadecanoyl-1-S-((3R}-3-tetracosanoyloxytetradecanoyl)-1-thio-β-D-glucopyranos-3-Yl}-D-lactoyl]-L-alanyl-D-isoglutamine methylester] |  |  |  |  |  |  |  |  |  |  | 0.005 ± 0.003 | 0.062 ± 0.004 | 0.086 ± 0.004 | 0.611 ± 0.018 | 0.543 ± 0.029 | 0.008 ± 0.004 | 0.041 ± 0.004 | 0.061 ± 0.001 | 0.787 ± 0.018 | 0.779 ± 0.024 | 
